These results are taken from patent US10111874B2, “Combination therapies for treatment of cancer” (Araxes Pharma LLC, priority 2014, dated 2018).

The target of this assay is T1, KRAS G12C 1-169, his-tagged protein, GDP-loaded (Homo sapiens, UniProt P01116, G12C).
T1 construct: KRAS G12C 1-169, his-tagged protein, GDP-loaded
T1 sequence (P01116 1-169 isoform P01116-2 G12C): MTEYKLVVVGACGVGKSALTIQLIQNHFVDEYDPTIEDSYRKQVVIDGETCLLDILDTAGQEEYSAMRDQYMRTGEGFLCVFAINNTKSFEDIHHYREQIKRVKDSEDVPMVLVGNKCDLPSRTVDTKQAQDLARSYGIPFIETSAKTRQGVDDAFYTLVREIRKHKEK
The assay can be described thus: Biochemical assay: covalent binding to KRAS G12C analyzed by mass spectrometry. Further: test concentration or dose not given here. Particulars: compounds 48-246, measured at 2 h.
Take `C=CC(=O)N1CCN(c2ncnc3cc(-c4c(O)cccc4F)c(C(F)(F)F)cc23)CC1` [Compound I-208, 1-(4-(7-(2-fluoro-6-hydroxyphenyl)-6-(trifluoromethyl)quinazolin-4-yl)piperazin-1-yl)prop-2-en-1-one]: the Binding % entry was “++++ (++++indicates binding activity greater than 75%)”.
Turning to `C=CC(=O)N1CCN(c2ncnc3c(F)c(-c4ccccc4C(F)(F)F)c(Cl)cc23)CC1` [Compound I-209, 1-(4-(6-chloro-8-fluoro-7-(2-(trifluoromethyl)phenyl)quinazolin-4-yl)piperazin-1-yl)prop-2-en-1-one], the Binding % entry is given as “++++ (++++indicates binding activity greater than 75%)”.
Take `C=CC(=O)N1CCN(c2ncnc3c(Cl)c(-c4ccccc4F)c(Cl)cc23)CC1` [Compound I-210, 1-(4-(6,8-dichloro-7-(2-fluorophenyl)quinazolin-4-yl)piperazin-1-yl)prop-2-en-1-one]: the Binding % result was “++++ (++++indicates binding activity greater than 75%)”.
`C=CC(=O)N1CCN(c2ncnc3cc(-c4ccccc4C(N)=O)c(C(F)(F)F)cc23)CC1` [Compound I-211, 2-(4-(4-acryloylpiperazin-1-yl)-6-(trifluoromethyl)quinazolin-7-yl)benzamide]: the Binding % entry was “+ (+indicates binding activity from 5% to 25%)”.
`C=CC(=O)N1CCN(c2ncnc3cc(-c4ccccc4C(F)(F)F)c(C(F)(F)F)cc23)CC1` [Compound I-212, 1-(4-(6-(trifluoromethyl)-7-(2-(trifluoromethyl)phenyl)quinazolin-4-yl)piperazin-1-yl)prop-2-en-1-one]: the Binding % result is on record as “++++ (++++indicates binding activity greater than 75%)”.
With `C=CC(=O)N1CCN(c2ncnc3cc(-c4ccccc4S(N)(=O)=O)c(Cl)cc23)CC1` [Compound I-213, 2-(4-(4-acryloylpiperaqzin-1-yl)-6-chloroquinazolin-7-yl)benzenesulfonamide], the Binding % result was “++ (++indicates binding activity greater than 25% and up to 50%)”.
For the compound `C=CC(=O)N1CCN(c2ncnc3cc(-c4ccnc5ccccc45)c(Cl)cc23)CC1` [Compound I-214, 1-(4-(6-chloro-7-(quinolin-4-yl)quinazolin-4-yl)piperazin-1-yl)prop-2-en-1-one], the Binding % result was “+ (+indicates binding activity from 5% to 25%)”.
For `C=CC(=O)N1CCN(c2ncnc3cc(-c4c(F)ccc(F)c4O)c(Cl)cc23)CC1` [Compound I-216, 1-(4-(6-chloro-7-(3,6-difluoro-2-hydroxyphenyl)quinazolin-4-yl)piperazin-1-yl)prop-2-en-1-one], the Binding % entry is given as “+ (+indicates binding activity from 5% to 25%)”.
For `C=CC(=O)N1CCN(c2ncnc3c(F)c(-c4cc(O)ccc4Cl)c(Cl)cc23)CC1` [Compound I-217, 1-(4-(6-chloro-7-(2-chloro-5-hydroxyphenyl)-8-fluoroquinazolin-4-yl)piperazin-1-yl)prop-2-en-1-one] the value was “+++ (+++indicates binding activity greater than 50% and up to 75%)”; for `C=CC(=O)N1CCN(c2ncnc3cc(-c4c(O)ccc5ccccc45)c(C(F)(F)F)cc23)CC1` [Compound I-218, 1-(4-(7-(2-hydroxynaphthalen-1-yl)-6-(trifluoromethyl)quinazolin-4-yl)piperazin-1-yl)prop-2-en-1-one], “+++ (+++indicates binding activity greater than 50% and up to 75%)”; for `CN(C)C/C=C/C(=O)N1CCN(c2ncnc3cc(-c4ccc(F)cc4F)c(Cl)cc23)CC1` [Compound I-219, (E)-1-(4-(6-chloro-7-(2,4-difluorophenyl)quinazolin-4-yl)piperazin-1-yl)-4-(dimethylamino)but-2-en-1-one], “+ (+indicates binding activity from 5% to 25%)”.
On to `C=CC(=O)N1CCN(c2c(C#N)cnc3cc(-c4c(O)cccc4F)c(Cl)cc23)CC1` [Compound I-220, 4-(4-acryloylpiperazin-- yl)-6-chloro-7-(2-fluoro-6-hydroxyphenyl)quinoline-3-carbonitrile], for which the Binding % result is “+++ (+++indicates binding activity greater than 50% and up to 75%)”.
Regarding `C=CC(=O)N1CCN(c2cnnc3cc(-c4ccc(F)cc4F)c(Cl)cc23)CC1` [Compound I-221, 1-(4-(6-chloro-7-(2,4-difluorophenyl)cinnolin-4-yl)piperazin-1-yl)prop-2-en-1-one], the Binding % result was “++ (++indicates binding activity greater than 25% and up to 50%)”.
`C=CC(=O)N1CCN(c2ncnc3cc(-c4ccccc4C4(C)CC4)c(Cl)cc23)CC1` [Compound I-222, 1-(4-(6-chloro-7-(2-(1-methylcyclopropyl)phenyl)quinazolin-4-yl)piperazin-1-yl)prop-2-en-1-one]: the Binding % entry is “+++ (+++indicates binding activity greater than 50% and up to 75%)”.
With `C=CC(=O)N1CCN(c2ncnc3cc(-c4cccc5c4CCCN5)c(Cl)cc23)CC1` [Compound I-223, 1-(4-(6-chloro-7-(1,2,3,4-tetrahydroquinolin-5-yl)quinazolin-4-yl)piperazin-1-yl)prop-2-en-1-one], the Binding % result is given as “+ (+indicates binding activity from 5% to 25%)”.
`C=CC(=O)N1CCN(c2ncnc3c(F)c(-c4ccc(F)cc4F)c(Cl)cc23)CC1` [Compound I-224, 1-(4-(6-chloro-7-(2,4-difluorophenyl)-8-fluoroquinazolin-4-yl)piperazin-1-yl)prop-2-en-1-one]: the Binding % entry was “+++ (+++indicates binding activity greater than 50% and up to 75%)”.
In the case of `C=CC(=O)N1CCN(c2cnnc3cc(-c4ccccc4C(F)(F)F)c(Cl)cc23)CC1` [Compound I-225, 1-(4-(6-chloro-7-(2-(trifluoromethyl)phenyl)cinnolin-4-yl)piperazin-1-yl)prop-2-en-1-one] it was “++ (++indicates binding activity greater than 25% and up to 50%)”.
Turning to `C=CC(=O)N1CCN(c2ncnc3cc(-c4nn(C)c5ccccc45)c(Cl)cc23)CC1` [Compound I-226, 1-(4-(6-chloro-7-(1-methyl-1H-indazol-3-yl)quinazolin-4-yl)piperazin-1-yl)prop-2-en-1-one], the Binding % entry is “+ (+indicates binding activity from 5% to 25%)”.
`C=CC(=O)N1CCN(c2ncnc3c(F)c(-c4c(O)cccc4F)c(Cl)cc23)CC1` [Compound I-227, 1-(4-(6-chloro-8-fluoro-7-(2-fluoro-6-hydroxyphenyl)quinazolin-4-yl)piperazin-1-yl)prop-2-en-1-one]: the Binding % entry is recorded as “++++ (++++indicates binding activity greater than 75%)”.
`CN(C)C/C=C/C(=O)N1CCN(c2ncnc3cc(-c4ccccc4F)c(Cl)cc23)CC1` [Compound I-228, (E)0-1-(4-(6-chloro-7-(2-fluorophenyl)quinazolin-4-yl)piperazin-1-yl)-4-(dimethylamino)but-2-en-1-one]: the Binding % entry is reported as “+ (+indicates binding activity from 5% to 25%)”.
Regarding `CN(C)C/C=C/C(=O)N1CCN(c2ncnc3c(F)c(-c4ccccc4F)c(Cl)cc23)CC1` [Compound I-229, (E)-1-(4-(6-chloro-8-fluoro-7-(2-fluorophenyl)quinazolin-4-yl)piperazin-1-yl)-4-(dimethylamino)but-2-en-1-one], the Binding % entry was “++ (++indicates binding activity greater than 25% and up to 50%)”.
For `CN(C)C/C=C/C(=O)N1CCN(c2ncnc3c(F)c(-c4ccccc4F)c(-c4ccccc4F)cc23)CC1` [Compound I-230, (E)-4-(dimethylamino)-1-(4-(8-fluoro-6,7-bis(2-fluorophenyl)quinazolin-4-yl)piperazin-1-yl)but-2-en-1-one] the value was “+ (+indicates binding activity from 5% to 25%)”; for `C=CC(=O)N1CCN(c2cnnc3cc(-c4c(O)cccc4F)c(Cl)cc23)CC1` [Compound I-231, 1-(4-(6-chloro-7-(2-fluoro-6-hydroxyphenyl)ciinolin-4-yl)piperazin-1-yl)prop-2-en-1-one], “+++ (+++indicates binding activity greater than 50% and up to 75%)”; for `C=CC(=O)N1CCN(c2ncnc3cc(-c4c(F)cccc4C(N)=O)c(Cl)cc23)CC1` [Compound I-232, 2-(4-(4-acryloylpiperazin-1-yl)-6-chloroquinazolin-7-yl)-3-fluorobenzamide], “+ (+indicates binding activity from 5% to 25%)”.
Take `C=CC(=O)N1CCN(c2ncnc3cc(-c4c(O)cccc4C(F)(F)F)c(Cl)cc23)CC1` [Compound I-233, 1-(4-(6-chloro-7-(2-hydroxy-6-(trifluoromethyl)phenyl)quinazolin-4-yl)piperazin-1-yl)prop-2-en-1-one]: the Binding % entry is “+++ (+++indicates binding activity greater than 50% and up to 75%)”.
As for `C=CC(=O)N1CCN(c2ncnc3c(F)c(-c4c(C)ccc5[nH]ncc45)c(Cl)cc23)CC1` [Compound I-234, 1-(4-(6-chloro-8-fluoro-7-(5-methyl-1H-indazol-4-yl)quinazolin-4-yl)piperazin-1-yl)prop-2-en-1-one], the Binding % result is listed as “++++ (++++indicates binding activity greater than 75%)”.
For the compound `C=CC(=O)N1CCN(c2ncnc3c(F)c(-c4c(O)ccc5ccccc45)c(Cl)cc23)CC1` [Compound I-235, 1-(4-(6-chloro-8-fluoro-7-(2-hydroxynaphthalen-1-yl)quinazolin-4-yl)piperazin-1-yl)prop-2-en-1-one], the Binding % entry is “+++ (+++indicates binding activity greater than 50% and up to 75%)”.
As to `C=CC(=O)N1CCN(c2ncnc3c(F)c(-c4ccccc4C(N)=O)c(Cl)cc23)CC1` [Compound I-236, 2-(4-(4-acryloylpiperazin-1-yl)-6-chloro-8-fluoroquinazolin-7-yl)benzamide], the Binding % result was “+++ (+++indicates binding activity greater than 50% and up to 75%)”.
For `C=CC(=O)N1CCN(c2ncnc3cc(-c4c(C)ccc5[nH]ncc45)c(C(F)(F)F)cc23)CC1` [Compound I-237, 1-(4-(7-(5-methyl-1H-indazol-4-yl)-6-(trifluoromethyl)quinazolin-4-yl)piperazin-1-yl)prop-2-en-1-one], the Binding % result is “++++ (++++indicates binding activity greater than 75%)”.
Regarding `C=CC(=O)N1CCN(c2cnnc3cc(-c4c(C)ccc5[nH]ncc45)c(Cl)cc23)CC1` [Compound I-238, 1-(4-(6-chloro-7-(5-methyl-1H-indazol-4-yl)cinnolin-4-yl)piperazin-1-yl)prop-2-en-1-one], the Binding % result was “+++ (+++indicates binding activity greater than 50% and up to 75%)”.
